Experimental findings from ChEMBL document CHEMBL1128166, “Synthesis and antiviral activity of rigid acyclonucleotide analogs” (Bioorg Med Chem Lett, 1995) are described below.

The subject of data set [1] is MRC5. Nature of the data set: Anti-herpes virus activity was evaluated against human cytomegalovirus (HCMV, strain AD-169) grown in MRC-5 cells. In kind it is functional, cell-based.
Data set [2] concerns Vero. Nature of the data set: The lowest concentration of compound producing overt cytotoxicity in virus-free vero cell cultures. The format is functional. The conditions noted are these: Chlorocebus sabaeus.
Data set [3] relates to MRC5. Kind of data set: The lowest concentration of compound producing overt cytotoxicity in virus-free MRC-5 cell cultures. The format is functional. The conditions noted are these: Homo sapiens.
Data set [4] deals with Vero. Nature of the data set: Anti-herpes virus activity was evaluated against Herpes simplex virus type 2 (HSV-2,strain G) grown in Vero cells. The conditions noted are these: Chlorocebus sabaeus. In kind it is functional, cell-based.
The subject of data set [5] is Vero. Kind of data set: Anti-herpes virus activity was evaluated against Herpes simplex virus type 1 (HSV-1,strain HF) grown in Vero cells. The format is functional, cell-based. The conditions noted are these: Chlorocebus sabaeus.
Data set [6] has as its system MT4. Nature of the data set: Cytotoxic concentration required to reduce the viability of MT-4 cells. The conditions noted are these: Homo sapiens. In kind it is functional.
Data set [7] deals with C8166. Nature of the data set: Concentration required to inhibit p24 viral antigen production by 50% in C-8166 cells. The format is functional, cell-based. The conditions noted are these: Homo sapiens.
Data set [8] relates to MT4. Nature of the data set: Concentration required to inhibit HIV-1-induced cytopathic effect by 50% in MT-4 cells. The format is functional, cell-based. The conditions noted are these: Homo sapiens. A general note: Damage to the host cells serves as the signal in cytopathic effect assays.
The test system of data set [9] is Guanylate kinase (Sus scrofa). Kind of data set: Percent efficiency phosphorylated by guanylate kinase taken from hog brain.
Substrate in data set [10]: Nc1nc2c(ncn2[C@@H]2O[C@H](COP(=O)(O)O)[C@@H](O)[C@H]2O)c(=O)[nH]1
Nature of the data set: (§1) Michaelis-Menten constant (Km) for guanylate kinase was determined.

Substrate in data set [11]: C=C(COCP(=O)(O)O)Cn1cnc2c(O)nc(N)nc21
Described as §1. The conditions noted are these: Sus scrofa.

Substrate in data set [12]: C=C(COCP(=O)(O)O)Cn1cnc2c(O)nc(N)nc21
Kind of data set: Vmax for guanylate kinase was determined. The conditions noted are these: Sus scrofa.

A word on the EC50: it is the midpoint of the concentration-response curve. A higher EC50 goes with lower potency in that assay. In general, CC50 refers to the concentration at which the toxic effect on the cells reaches its halfway point. Regarding `Nc1ncnc2c1ncn2C/C=C\COCP(=O)(O)O`, the 50% effective concentration (EC50) was more than 250 µM in [1]; more than 250 µM in data set [4]; more than 250 µM in data set [5]; 38 µM in data set [7]; 170 µM in [8]. Also, the figures for the CC50 in data set [2], in data set [3] and in [6] were not below 250 µM, more than 250 µM and more than 1000 µM, respectively.
In the case of `Nc1ccn(C/C=C\COCP(=O)(O)O)c(=O)n1`, the EC50 in [1] is more than 250 µM; in [4], more than 250 µM; in data set [5], more than 250 µM; in data set [7], more than 100 µM; in data set [8], more than 100 µM. Also, the CC50 in [2] was more than 250 µM; in data set [3] it was more than 250 µM; in data set [6], more than 100 µM.
As for `C=C(COCP(=O)(O)O)Cn1cnc2c(O)nc(N)nc21`, the EC50 was 34 µM in data set [1]; more than 250 µM in [4]; more than 250 µM in data set [5]; 1.9 µM in data set [7]; 25 µM in [8]. The half-maximal cytotoxic concentration (CC50) was more than 250 µM in [2], more than 250 µM in data set [3] and 1800 µM in data set [6]. This molecule also returned an Efficacy in [9] of 0.6%.
In the case of `Nc1nc2c(ncn2COCCO)c(=O)[nH]1` [ACYCLOVIR], the concentration giving a half-maximal response (EC50) was 18 µM in data set [1], 3 µM in data set [4] and 6 µM in [5]. Further, the 50% cytotoxic concentration (CC50) is more than 100 µM in data set [2] and not below 100 µM in data set [3].
For the molecule `Nc1ncnc2c1ncn2CC#CCOCP(=O)(O)O`, the EC50 in data set [1] was more than 250 µM; in data set [4], more than 250 µM; in [5], more than 250 µM; in data set [7] it was more than 100 µM; in data set [8] it was more than 100 µM. The results for the CC50 in data set [2], in data set [3] and in data set [6] were not below 250 µM, more than 250 µM and 800 µM, respectively.
In the case of `Nc1ccn(CC#CCOCP(=O)(O)O)c(=O)n1`, the EC50 in [1] was more than 250 µM; in data set [4], more than 250 µM; in [5], more than 250 µM; in data set [7], more than 100 µM; in data set [8], more than 100 µM. Also, the CC50 in data set [2] was more than 250 µM; in data set [3], more than 250 µM; in data set [6], more than 100 µM.
Turning to `Nc1ncnc2c1ncn2CCOCP(=O)(O)O` [ADEFOVIR], the EC50 in data set [1] stood at 36 µM; in data set [4], 69 µM; in data set [5] it was 58 µM; in data set [7], 1.7 µM; in [8], 22 µM. Also, the CC50 is not below 250 µM in data set [2], more than 250 µM in data set [3] and 187 µM in data set [6].
In the case of `Cc1cn([C@H]2C[C@H](N=[N+]=[N-])[C@@H](CO)O2)c(=O)[nH]c1=O` [ZIDOVUDINE], in [6], it took 113 µM to reach half-maximal cytotoxicity (CC50). Moreover, the values for the EC50 in [7] and in [8] were 0.03 µM and 0.035 µM, respectively.
`C=C(COCP(=O)(O)O)Cn1cnc2c(N)ncnc21`: the 50% effective concentration (EC50) in data set [1] is more than 250 µM; in data set [4], more than 250 µM; in [5], 36 µM; in [7] it was more than 100 µM; in data set [8], more than 100 µM. For the same molecule, the half-maximal cytotoxic concentration (CC50) in data set [2] is more than 250 µM; in data set [3] it was more than 250 µM; in [6], more than 1000 µM.
As to `C=C(COCP(=O)(O)O)Cn1ccc(N)nc1=O`, the EC50 in [1] is more than 250 µM; in data set [4], more than 250 µM; in data set [5], more than 250 µM; in data set [7], more than 100 µM; in [8] it was more than 100 µM. The CC50 in data set [2] was more than 250 µM; in data set [3] it was more than 250 µM; in [6], more than 100 µM.
Take `Nc1nc(O)c2ncn(C/C=C\COCP(=O)(O)O)c2n1`: the EC50 in data set [1] is more than 250 µM; in [4], more than 250 µM; in data set [5] it was 37 µM; in [7], more than 100 µM; in data set [8], more than 100 µM. The values for the cytotoxic concentration (CC50) in data set [2], in [3] and in data set [6] were more than 250 µM, more than 250 µM and more than 1000 µM, respectively.

B1: Guanylate kinase (Homo sapiens), Q16774 (protein)
chain: MSGPRPVVLSGPSGAGKSTLLKRLLQEHSGIFGFSVSHTTRNPRPGEENGKDYYFVTREVMQRDIAAGDFIEHAEFSGNLYGTSKVAVQAVQAMNRICVLDVDLQGVRNIKATDLRPIYISVQPPSLHVLEQRLRQRNTETEESLVKRLAAAQADMESSKEPGLFDVVIINDSLDQAYAELKEALSEEIKKAQRTGA
A word on the Km: it is the substrate concentration at which the rate is half of its maximum. As to B1, the Km in data set [10] was 18 µM; in [11], 238 µM. In addition, the Vmax in data set [12] was 8%.
